Tests used:
[1] = tested on: mRNA transcript for the firefly (Photinus pyralis) luciferase gene; assay: In vivo efficacy in luciferase mouse model (bioluminescence, IVIS imager); details: tail vein injection; for Average % Inhibition of Bioluminescence: LNPs prepared from the cationic lipid with Luc siRNA, 3 mg Kg^−1, imaged 48 hours post dose, relative to pre-dose luminescence
Protocol: LNPs utilizing compound 4, in the nominal compositions described immediately above, were evaluated for in vivo efficacy and induction of inflammatory cytokines in a luciferase mouse model. The siRNA targets the mRNA transcript for the firefly (Photinus pyralis) luciferase gene (Accession #M15077). […] The in vivo luciferase model employs a transgenic mouse in which the firefly luciferase coding sequence is present in all cells. ROSA26-LoxP-Stop-LoxP-Luc (LSL-Luc) transgenic mice licensed from the Dana Farber Cancer. Institute are induced to express the Luciferase gene by first removing the LSL sequence with a recombinant Ad-Cre virus (Vector Biolabs). Due to the organo-tropic nature of the virus, expression is limited to the liver when delivered via tail vein injection. Luciferase expression levels in liver are quantitated by measuring light output, using an IVIS imager (Xenogen) following administration of the luciferin substrate (Caliper Life Sciences). Pre-dose luminescence levels are measured prior to administration of the RDVs. Luciferin in PBS (15 mg/mL) is intraperitoneally (IP) injected in a volume of 150 uL. After a four minute incubation period mice are anesthetized with isoflurane and placed in the IVIS imager. The RDVs (containing siRNA) in PBS vehicle were tail vein injected n a volume of 0.2 mL. Final dose levels ranged from 0.3 to 3 mg/kg siRNA. PBS vehicle alone was dosed as a control. Three hours post dose, mice were bled retro-orbitally to obtain plasma for cytokine analysis. Mice were imaged 48 hours post dose using the method described above. Changes in luciferin light output directly correlate with luciferase mRNA levels and represent an indirect measure of luciferase siRNA activity. In vivo efficacy results are expressed as % inhibition of luminescence relative to pre-dose luminescence levels. Plasma cytokine levels were determined using the Searchlight multiplexed cytokine chemoluminescent array (Pierce/Thermo). Systemic administration of the luciferase siRNA RDVs decreased luciferase expression in a dose dependant manner.

IL-6 = assay: Mouse in vivo cytokine IL-6 induction (plasma, Searchlight multiplexed cytokine array); details: RDVs containing luciferase siRNA; plasma 3 hours post dose; relative to PBS control
Protocol: (§1) FIG. 1: Mouse in vivo Cytokine IL-6 Induction 3 hour post injection. LNPs utilizing compound 4, in the nominal compositions described immediately above, were evaluated for in vivo efficacy and induction of inflammatory cytokines in a luciferase mouse model. The siRNA targets the mRNA transcript for the firefly (Photinus pyralis) luciferase gene (Accession #M15077). […] The in vivo luciferase model employs a transgenic mouse in which the firefly luciferase coding sequence is present in all cells. ROSA26-LoxP-Stop-LoxP-Luc (LSL-Luc) transgenic mice licensed from the Dana Farber Cancer. Institute are induced to express the Luciferase gene by first removing the LSL sequence with a recombinant Ad-Cre virus (Vector Biolabs). Due to the organo-tropic nature of the virus, expression is limited to the liver when delivered via tail vein injection. Luciferase expression levels in liver are quantitated by measuring light output, using an IVIS imager (Xenogen) following administration of the luciferin substrate (Caliper Life Sciences). Pre-dose luminescence levels are measured prior to administration of the RDVs. […] In vivo efficacy results are expressed as % inhibition of luminescence relative to pre-dose luminescence levels. Plasma cytokine levels were determined using the Searchlight multiplexed cytokine chemoluminescent array (Pierce/Thermo). […]

mKC = assay: Mouse in vivo cytokine mKC induction (plasma, Searchlight multiplexed cytokine array); details: RDVs containing luciferase siRNA; plasma 3 hours post dose; relative to PBS control
Protocol: as §1, with “2:” for “1:”, “mKC” for “IL-6”

Row | Structure (SMILES) | Average % Inhibition of Bioluminescence [1] [%] | Mouse plasma level of cytokine IL-6 (IL-6) | Mouse plasma level of cytokine mKC (mKC) | In vivo efficacy (decrease of luciferase expression) ([1]; RDVs containing luciferase siRNA, 0.3 to 3 mg/kg siRNA, 48 hours post dose)
1 | CCCCC/C=C\C/C=C\CCCCCCCCOCC(CN(C)C)OCCCCCCCCO[C@H]1CC[C@@]2(C)C(=CC[C@H]3[C@@H]4CC[C@H]([C@H](C)CCCC(C)C)[C@@]4(C)CC[C@@H]32)C1 (stereo partly shown) [Compound 12, S-Octyl CLinDMA, reference compound] | 76 | significantly increased | significantly increased | –
2 | CCCCCCCCOC[C@H](CN(C)C)OCCCCO[C@H]1CC[C@@]2(C)C(=CC[C@H]3[C@@H]4CC[C@H]([C@H](C)CCCC(C)C)[C@@]4(C)CC[C@@H]32)C1 [Compound 4, (2S)-2-{4-[(3β)-cholest-5-en-3-yloxy]butoxy}-N,N-dimethyl-3-(octyloxy)propan-1-amine] | 87 | minimal cytokine induction | minimal cytokine induction | Greater efficacy
